“And” between values parts separate entries of the source, which are not always exact repeats. Equal values may be shown once. After the bases stand the sugars from the 5' end (letter, count) and the backbone: PS all phosphorothioate, else s phosphorothioate and o phosphodiester by linkage. Methylation of C is not given here. e = 2'-O-(2-methoxyethyl) (MOE); k = constrained ethyl (cEt); d = 2'-deoxy (DNA)
Target: IRF4
Conditions: ASO

Sequence: AACCTTAAGCTATTTG (sugars k3 d10 k3, PS)
- target mRNA inhibition (MM.1R, 0.0625 µM): -10%
- target mRNA inhibition (MM.1R, 0.25 µM): -5%
- target mRNA inhibition (MM.1R, 4 µM): 48%

Sequence: AACGAGCCAGTGCACA (sugars k3 d10 k3, PS)
- target mRNA inhibition (MM.1R, 1 µM): -1%

Sequence: AACTTACAGGACTATT (sugars k3 d10 k3, PS)
- target mRNA inhibition (SK-MEL-28, 4 µM): 13%

Sequence: AAGATACAAAACGGAC (sugars k3 d10 k3, PS)
- target mRNA inhibition (SK-MEL-28, 4 µM): 39%

Sequence: AAGATGACTCCATGAG (sugars k3 d10 k3, PS)
- target mRNA inhibition (SK-MEL-28, 4 µM): 64%

Sequence: AAGCAAGAGCTTACTG (sugars k3 d10 k3, PS)
- target mRNA inhibition (SK-MEL-28, 4 µM): 14%

Sequence: AAGCAAGTGGAGGTCT (sugars k3 d10 k3, PS)
- target mRNA inhibition (SK-MEL-28, 4 µM): 51%

Sequence: AAGCACTGGCATTGAG (sugars k3 d10 k3, PS)
- target mRNA inhibition (SK-MEL-28, 4 µM): 42%

Sequence: AAGCAGTGATGTCAGG (sugars kdddddddddkekeke, PS)
- target mRNA inhibition (MM.1R, 1 µM): 34% and 35%

Sequence: AAGCATTTTATCATCC (sugars e1 k2 d9 k2 e2, PS)
- target mRNA inhibition (MM.1R, 1 µM): 14%

Sequence: AAGCATTTTATCATCC (sugars kkdddddddddkdkdk, PS)
- target mRNA inhibition (MM.1R, 1 µM): 3%

Sequence: AAGCATTTTATCATCC (sugars kkkdddddddddkeke, PS)
- target mRNA inhibition (MM.1R, 1 µM): 21%

Sequence: AAGCGAGTCAGACAGT (sugars k3 d10 k3, PS)
- target mRNA inhibition (MM.1R, 1 µM): -22%

Sequence: AAGCTTGATAAAGGCT (sugars k3 d10 k3, PS)
- target mRNA inhibition (MM.1R, 1 µM): 3%

Sequence: AAGGGTTACGCTTATT (sugars k3 d10 k3, PS)
- target mRNA inhibition (SK-MEL-28, 4 µM): 52%

Sequence: AAGGTCTGAGAGCCTT (sugars k3 d10 k3, PS)
- target mRNA inhibition (SK-MEL-28, 4 µM): 17%

Sequence: AAGGTTCCTGTCACCT (sugars k4 d8 k4, PS)
- target mRNA inhibition (SK-MEL-28, 4 µM): 14%

Sequence: AAGTGATAGGTATACT (sugars k3 d10 k3, PS)
- target mRNA inhibition (SK-MEL-28, 4 µM): 50%

Sequence: AAGTGGAACTCATAGG (sugars k3 d10 k3, PS)
- target mRNA inhibition (MM.1R, 1 µM): 25%

Sequence: AAGTGTCTAAAGTCCC (sugars kkdddddddddkekek, PS)
- target mRNA inhibition (MM.1R, 1 µM): 12% and 22%

Sequence: AAGTTCATGTAAAGTC (sugars k2 d9 e3 k2, PS)
- target mRNA inhibition (MM.1R, 1 µM): 21% and 3%

Sequence: AAGTTCATGTAAAGTC (sugars k3 d10 k3, PS)
- target mRNA inhibition (MM.1R, 1 µM): 43% and 41%

Sequence: AAGTTCATGTAAAGTC (sugars kdddddddddkekeke, PS)
- target mRNA inhibition (MM.1R, 1 µM): 14% and 21%

Sequence: AAGTTCATGTAAAGTC (sugars kkdddddddddkekek, PS)
- target mRNA inhibition (MM.1R, 1 µM): 34% and 27%

Sequence: AATAAAATGTCACGCC (sugars k3 d10 k3, PS)
- target mRNA inhibition (MM.1R, 1 µM): 20%

Sequence: AATAAACACCCCTTCT (sugars k3 d10 k3, PS)
- target mRNA inhibition (SK-MEL-28, 4 µM): 21%

Sequence: AATAAAGACCTTAACC (sugars k3 d10 k3, PS)
- target mRNA inhibition (SK-MEL-28, 4 µM): 11%

Sequence: AATAAGCAGAAACAGC (sugars k3 d10 k3, PS)
- target mRNA inhibition (SK-MEL-28, 4 µM): -1%

Sequence: AATATAACGGTGTTTC (sugars k3 d10 k3, PS)
- target mRNA inhibition (MM.1R, 1 µM): 8%

Sequence: AATCACGAGGTTGCCG (sugars k3 d10 k3, PS)
- target mRNA inhibition (MM.1R, 1 µM): -6%

Sequence: AATCACTTGTCTTGGG (sugars k3 d10 k3, PS)
- target mRNA inhibition (SK-MEL-28, 4 µM): 60%

Sequence: AATCAGATGATGTCTA (sugars k4 d8 k4, PS)
- target mRNA inhibition (SK-MEL-28, 4 µM): -13%

Sequence: AATCAGATGTCACTGA (sugars k3 d10 k3, PS)
- target mRNA inhibition (SK-MEL-28, 4 µM): 3%

Sequence: AATCTTCTGGATTGCT (sugars k3 d10 k3, PS)
- target mRNA inhibition (MM.1R, 1 µM): 14%

Sequence: AATGAACGGAAGTTTA (sugars k3 d10 k3, PS)
- target mRNA inhibition (SK-MEL-28, 4 µM): 33%

Sequence: AATGGAGATACTTGTA (sugars k3 d10 k3, PS)
- target mRNA inhibition (MM.1R, 1 µM): 26%

Sequence: AATGGCAGCACCGTGT (sugars k3 d10 k3, PS)
- target mRNA inhibition (MM.1R, 1 µM): 0%

Sequence: AATGTAGGGATACAGC (sugars k3 d10 k3, PS)
- target mRNA inhibition (SK-MEL-28, 4 µM): 62%

Sequence: AATGTGTATTACTCTT (sugars k2 d9 e3 k2, PS)
- target mRNA inhibition (MM.1R, 1 µM): 15% and 17%

Sequence: AATGTGTATTACTCTT (sugars kdddddddddkekeke, PS)
- target mRNA inhibition (MM.1R, 1 µM): 12% and 15%

Sequence: AATGTGTATTACTCTT (sugars kkdddddddddekeke, PS)
- target mRNA inhibition (MM.1R, 1 µM): 24% and 30%

Sequence: AATGTTCAGCTTTTCC (sugars k3 d10 k3, PS)
- target mRNA inhibition (SK-MEL-28, 4 µM): 63%

Sequence: AATTACTGCTTGAGGT (sugars k3 d10 k3, PS)
- target mRNA inhibition (SK-MEL-28, 4 µM): 58%

Sequence: ACAAGCATAAAAGGTT (sugars k4 d8 k4, PS)
- target mRNA inhibition (SK-MEL-28, 4 µM): 40%

Sequence: ACACACCACTATTCGA (sugars k3 d10 k3, PS)
- target mRNA inhibition (SK-MEL-28, 4 µM): 35%

Sequence: ACACGGGAATTTCCAT (sugars k3 d10 k3, PS)
- target mRNA inhibition (SK-MEL-28, 4 µM): 56%

Sequence: ACACTTTTAGAGAGGA (sugars kkddddddddddkeke, PS)
- target mRNA inhibition (MM.1R, 1 µM): 14%

Sequence: ACACTTTTAGAGAGGA (sugars kkkdddddddddkeke, PS)
- target mRNA inhibition (MM.1R, 1 µM): 37%

Sequence: ACAGAGGACTTCGGGA (sugars k3 d10 k3, PS)
- target mRNA inhibition (SK-MEL-28, 4 µM): -36%

Sequence: ACAGGACCTGGTCCAG (sugars k4 d8 k4, PS)
- target mRNA inhibition (SK-MEL-28, 4 µM): 7%

Sequence: ACAGTGACTTGCATCC (sugars kkdddddddddkdkdk, PS)
- target mRNA inhibition (MM.1R, 1 µM): 18%

Sequence: ACAGTGATCATCAATG (sugars k3 d10 k3, PS)
- target mRNA inhibition (SK-MEL-28, 4 µM): 56%

Sequence: ACATAAAGGACCCCGC (sugars k3 d10 k3, PS)
- target mRNA inhibition (SK-MEL-28, 4 µM): 28%

Sequence: ACATACCTACAAGCAG (sugars k3 d10 k3, PS)
- target mRNA inhibition (SK-MEL-28, 4 µM): 45%

Sequence: ACCAAATTCCCGGAGG (sugars k3 d10 k3, PS)
- target mRNA inhibition (SK-MEL-28, 4 µM): 7%

Sequence: ACCAGAATTGCAAGAG (sugars k3 d10 k3, PS)
- target mRNA inhibition (SK-MEL-28, 4 µM): 60%

Sequence: ACCCAAGACTCCCAGA (sugars k3 d10 k3, PS)
- target mRNA inhibition (SK-MEL-28, 4 µM): 45%

Sequence: ACCCAGAAGTACGAGC (sugars k3 d10 k3, PS)
- target mRNA inhibition (SK-MEL-28, 4 µM): 21%

Sequence: ACCCAGCTAATGAGAG (sugars k3 d10 k3, PS)
- target mRNA inhibition (SK-MEL-28, 4 µM): 35%

Sequence: ACCGATGCTTCAAGAC (sugars k3 d10 k3, PS)
- target mRNA inhibition (MM.1R, 1 µM): 31% and 56%

Sequence: ACCGGTAGAGTGAGAT (sugars k3 d10 k3, PS)
- target mRNA inhibition (MM.1R, 1 µM): 16% and 2%

Sequence: ACCTACACAGGCTAAT (sugars k3 d10 k3, PS)
- target mRNA inhibition (MM.1R, 1 µM): -4%

Sequence: ACCTACTCCATCACTT (sugars k3 d10 k3, PS)
- target mRNA inhibition (SK-MEL-28, 4 µM): -3%

Sequence: ACCTCAGTTTGTGAAG (sugars e1 k2 d9 k2 e2, PS)
- target mRNA inhibition (MM.1R, 1 µM): 2%

Sequence: ACCTCAGTTTGTGAAG (sugars k3 d10 k3, PS)
- target mRNA inhibition (SK-MEL-28, 4 µM): 39%

Sequence: ACCTCAGTTTGTGAAG (sugars kkdddddddddkekek, PS)
- target mRNA inhibition (MM.1R, 1 µM): 13%

Sequence: ACCTCAGTTTGTGAAG (sugars kkkdddddddddkeke, PS)
- target mRNA inhibition (MM.1R, 1 µM): 8%

Sequence: ACCTCAGTTTGTGAAG (sugars kkkddddddddkekek, PS)
- target mRNA inhibition (MM.1R, 1 µM): -3%

Sequence: ACCTGAATAGGAAGAT (sugars k3 d10 k3, PS)
- target mRNA inhibition (SK-MEL-28, 4 µM): 31%

Sequence: ACCTTATGCTTGGCTC (sugars k4 d8 k4, PS)
- target mRNA inhibition (SK-MEL-28, 4 µM): 30%

Sequence: ACCTTTACTTCATTCC (sugars k3 d10 k3, PS)
- target mRNA inhibition (SK-MEL-28, 4 µM): 64%

Sequence: ACGAAAACAGCCGCCG (sugars k3 d10 k3, PS)
- target mRNA inhibition (SK-MEL-28, 4 µM): 14%

Sequence: ACGAAACACAGTCTGC (sugars k3 d10 k3, PS)
- target mRNA inhibition (SK-MEL-28, 4 µM): 52%

Sequence: ACGAAGATTCAAAAGG (sugars k3 d10 k3, PS)
- target mRNA inhibition (SK-MEL-28, 4 µM): 36%

Sequence: ACGAGAACGCACGGAC (sugars k3 d10 k3, PS)
- target mRNA inhibition (SK-MEL-28, 4 µM): 40%

Sequence: ACGAGGTTGCCGAGAT (sugars k3 d10 k3, PS)
- target mRNA inhibition (MM.1R, 0.0625 µM): -16%
- target mRNA inhibition (MM.1R, 0.25 µM): 7%
- target mRNA inhibition (MM.1R, 1 µM): 62% and 41%
- target mRNA inhibition (MM.1R, 4 µM): 78%

Sequence: ACGCAATCTTCTGCTG (sugars k3 d10 k3, PS)
- target mRNA inhibition (SK-MEL-28, 4 µM): 52%

Sequence: ACGCAGTGCACCTGTG (sugars k3 d10 k3, PS)
- target mRNA inhibition (SK-MEL-28, 4 µM): -7%
